Key:
wild type PKR [1] = molecular target: T1, wild type PKR (Homo sapiens, UniProt P30613); test: Cell based ATP assay in purified red blood cells (Cell-Titer-Glo); design: endogenous in cells; host or cells: purified red blood cells from healthy volunteers; conditions: Table 2; RBCs, overnight at 37° C., ATP levels
Experimental: Example 16. Red Blood Cell (RBC) Purification
Fresh blood drawn from healthy volunteers into K2EDTA tubes was collected. Whole blood was pelleted by spinning at 500 g for 10 minutes. Cut transfusion bag port off of Purecell leukocyte reduction neofilter (Fisher NC0267633) one (1) inch above filter. Attach a 10 ml syringe barrel to the remaining cut tubing attached to neofilter. The plasma layer was removed from the pellet of the whole blood and the pellet was resuspended in 2× volume of phosphate buffered saline (PBS). Transfer 9 ml re-suspended blood cell pellet to prepared 10 ml syringe that is attached to the neofilter. Allow whole blood to gravity flow through filter until all fluid runs through upper tubing into filter disc. Add plunger to the syringe, remove syringe from clamp and invert the filter, then plunge air through the syringe filter system. Using a new 5 ml syringe, remove filtered RBCs from the bag by the syringe port and transfer purified RBCs to a 5 ml snap cap tube that has been incubated on ice. Spin 5 ml snap cap tube at 500 g for 10 minutes at 15 C, aspirate supernatant and resuspend in AGAM (1×PBS, 1% glucose, 170 mg/L adenine, 5.25 g/L mannitol) at a density of 4×10^9 cells/mL.
Example 17. Cell Based ATP Assay
For cell based ATP assays, the compound as described herein was prepared in 100% DMSO as a 10 mM stock. Serial dilutions (1:4) were performed in 96-well V-bottom storage plate and then added 1:100 to 96-well V-bottom plates containing AGAM. RBCs were diluted in AGAM media to a density of 1×10^7 cells/mL before added 90 μL/well to black clear bottom assay plates (final compound concentration at 0.1% DMSO concentration). Assay plates were sealed using aluminum foil seals and incubated overnight at 37° C. in a humidified chamber. ATP levels were read out using Cell-Titer-Glo (Promega).

wild type PKR [2] = molecular target: T1, wild type PKR; test: PKR (wild type) enzyme AC50 assay, LDH/NADH-coupled, absorbance at 340 nm; assay type: biochemical; conditions: Table 2; enzyme assay; read-out: PKR WT AC50
Experimental: (§1) Example 11. PKR Mutant Assay
(§2) PKR or PKR mutant enzyme solution was diluted into a reaction mix, which contains 1× buffer (100 mM KCl, 50 mM Tris pH 7.5, 5 mM MgCl2) as well as PEP (conc depends on enzyme), 180 μM NADH, 0.5 units LDH, 1 mM DTT, 0.03% BSA; final assay concentrations after 1.11 fold dilution are indicated.
(§3) 2 μL of test compound was added into wells first, and then 180 μL reaction mix was added.
(§4) Reactions mixture with test compound was assembled except for ADP, and plates were stored for 60 minutes at room temperature.
(§5) 20 uL ADP was added to start reaction at room temperature and reaction progress was measured as changes in absorbance at 340 nm wavelength at room temperature.
(§6) Test Compound Preparation:
(§7) Test compound stock was made at 100× concentration in 100% DMSO (10 mM)
(§8) 1 to 3 dilutions were made for 11 points (i.e. 50 μl of first concentration added to 100 μl 100% DMSO to yield 3.33 mM, 50 μl of this added to 100 μl DMSO to yield 1.11 mM, and so forth) • 1 to 100 dilution into assay (2 μl in 200 μl) yielded starting concentration of 100 μM, decreasing 3 fold for 11 points.
(§9) Assay Buffer: 100 mM KCl, 50 mM Tris 7.5, 5 mM MgCl2, 1 mM DTT, 0.03% BSA
(§10) Reaction Mixture: PKR mutant enzyme: 40-400 ng/well; ADP: 0.2-1.65 mM; PEP: 0.1-0.5 mM; NADH: 180 μM; LDH: 0.5 units (Sigma #59023); DTT: 1 mM; BSA: 0.03%.

PKR K410E = PKR K410E (Homo sapiens, UniProt P30613, K410E); test: PKR mutant assay (K410E), AC50, LDH/NADH-coupled, absorbance at 340 nm; assay type: biochemical; conditions: Table 2; enzyme assay
PKR K410E, sequence (P30613 whole entry K410E): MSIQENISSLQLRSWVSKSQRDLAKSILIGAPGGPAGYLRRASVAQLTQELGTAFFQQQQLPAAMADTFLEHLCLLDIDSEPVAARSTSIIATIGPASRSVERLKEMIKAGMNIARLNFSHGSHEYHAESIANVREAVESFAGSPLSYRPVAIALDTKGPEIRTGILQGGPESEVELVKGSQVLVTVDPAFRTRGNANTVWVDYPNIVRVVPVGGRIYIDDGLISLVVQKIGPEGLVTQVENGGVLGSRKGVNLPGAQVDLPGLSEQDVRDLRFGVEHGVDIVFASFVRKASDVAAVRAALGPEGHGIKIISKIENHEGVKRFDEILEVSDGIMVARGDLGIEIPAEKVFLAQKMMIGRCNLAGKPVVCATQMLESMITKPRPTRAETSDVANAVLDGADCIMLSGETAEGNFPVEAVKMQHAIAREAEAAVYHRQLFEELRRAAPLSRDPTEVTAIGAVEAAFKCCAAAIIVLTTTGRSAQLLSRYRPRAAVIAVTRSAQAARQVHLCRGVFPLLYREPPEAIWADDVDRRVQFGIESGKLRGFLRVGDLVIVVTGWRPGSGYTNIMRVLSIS
Experimental: as §1, §2, §3, §4, §5, §6, §7, §8, §9, §10

PKR R510Q = PKR R510Q (Homo sapiens, UniProt P30613, R510Q); test: PKR mutant assay (R510Q), AC50, LDH/NADH-coupled, absorbance at 340 nm; assay type: biochemical; conditions: Table 2, enzyme assay; for AC50: read-out: PK R510Q AC50
PKR R510Q, sequence (P30613 whole entry R510Q): as the sequence (P30613 whole entry K410E) above, with E410K, R510Q counted along it
Experimental: as §1, §2, §3, §4, §5, §6, §7, §8, §9, §10

T1 sequence (P30613 whole entry): as the sequence (P30613 whole entry K410E) above, with E410K counted along it

| AC50 (wild type PKR [1]) | AC50 (wild type PKR [2]) | AC50 (PKR K410E) | AC50 (PKR R510Q) | Cell based ATP assay AC50 (wild type PKR [1]) | PKR K410E AC50 (PKR K410E) | PK R510Q AC50 (PKR R510Q) | Structure (SMILES) |
| --- | --- | --- | --- | --- | --- | --- | --- |
| ≤ 1000 nM | < 300 nM | < 300 nM | < 300 nM |  |  |  | COc1cccc(Cn2ncc3c4sc(C)nc4n(C)c3c2=O)c1 [Compound 1] |
| ≤ 1000 nM | < 300 nM | < 300 nM |  |  |  |  | COc1ccc(Cn2ncc3c4sc(C)nc4n(C)c3c2=O)cc1 [Compound 2] |
| ≤ 1000 nM | < 300 nM | < 300 nM | < 300 nM |  |  |  | Cc1nc2c(s1)c1cnn(Cc3ccccc3F)c(=O)c1n2C [Compound 3] |
|  | > 800 nM |  | > 800 nM | No Fit | No Fit |  | COc1cccc(Cn2ncc3c4sc(C(=O)c5ccccc5)nc4n(C)c3c2=O)c1 [Compound 4] |
| ≤ 1000 nM | < 300 nM | < 300 nM | < 300 nM |  |  |  | COc1cccc(Cn2ncc3c4sc(Cc5ccccc5)nc4n(C)c3c2=O)c1 [Compound 5] |
| > 1000 nM | > 800 nM | > 800 nM | > 800 nM |  |  |  | Cc1nc2c(s1)c1cnn(Cc3cccc(F)c3)c(=O)c1n2C [Compound 6] |
| ≤ 1000 nM | < 300 nM | < 300 nM | < 300 nM |  |  |  | Cc1nc2c(s1)c1cnn(Cc3cccc(O)c3)c(=O)c1n2C [Compound 7] |
| > 1000 nM | > 800 nM | 301 to 800 nM | 301 to 800 nM |  |  |  | COc1ccccc1Cn1ncc2c3sc(C)nc3n(C)c2c1=O [Compound 8] |
| ≤ 1000 nM | < 300 nM | < 300 nM | < 300 nM |  |  |  | Cc1nc2c(s1)c1cnn(Cc3ccc(F)cc3)c(=O)c1n2C [Compound 9] |
|  | > 800 nM | > 800 nM | > 800 nM | No Fit |  |  | CCOC(=O)c1cccc(Cn2ncc3c4sc(C)nc4n(C)c3c2=O)c1 [Compound 10] |
|  | > 800 nM | > 800 nM | > 800 nM | No Fit |  |  | Cc1nc2c(s1)c1cnn(Cc3cccc(C(=O)O)c3)c(=O)c1n2C [Compound 11] |
|  | < 300 nM | < 300 nM | < 300 nM |  |  |  | COc1cccc(Cn2ncc3c4sc(C(F)c5ccccc5)nc4n(C)c3c2=O)c1 (stereo not shown) [Compound 12] |
| ≤ 1000 nM | < 300 nM | < 300 nM | < 300 nM |  |  |  | COc1cccc(Cn2ncc3c4sc(C(O)c5ccccc5)nc4n(C)c3c2=O)c1 (stereo not shown) [Compound 13] |
| ≤ 1000 nM | < 300 nM | < 300 nM | < 300 nM |  |  |  | Cc1nc2c(s1)c1cnn(Cc3cccc(N)c3)c(=O)c1n2C [Compound 14] |
| > 1000 nM | > 800 nM | > 800 nM | < 300 nM |  |  |  | Cc1nc2c(s1)c1cnn(Cc3cccc(NC(N)=O)c3)c(=O)c1n2C [Compound 15] |
|  | < 300 nM | < 300 nM | < 300 nM |  |  |  | Cc1nc2c(s1)c1cnn(Cc3ccc(O)cc3)c(=O)c1n2C [Compound 16] |
| ≤ 1000 nM | < 300 nM | < 300 nM | < 300 nM |  |  |  | Cc1cccc(Cn2ncc3c4sc(C)nc4n(C)c3c2=O)n1 [Compound 17] |
| ≤ 1000 nM | 301 to 800 nM | 301 to 800 nM | < 300 nM |  |  |  | Cc1nc2c(s1)c1cnn(Cc3ccccc3O)c(=O)c1n2C [Compound 18] |
| > 1000 nM | 301 to 800 nM | 301 to 800 nM | < 300 nM |  |  |  | COc1cccc(Cn2ncc3c4scnc4n(C)c3c2=O)c1 [Compound 19] |
| > 1000 nM | > 800 nM | > 800 nM | > 800 nM |  |  |  | Cc1nc2c(s1)c1cnn(Cc3ccc4nn[nH]c4c3)c(=O)c1n2C [Compound 20] |

| AC50 (wild type PKR [1]) | AC50 (wild type PKR [2]) | AC50 (PKR K410E) | AC50 (PKR R510Q) | Cell based ATP assay AC50 (wild type PKR [1]) | PKR K410E AC50 (PKR K410E) | PK R510Q AC50 (PKR R510Q) | Structure (SMILES) |
| --- | --- | --- | --- | --- | --- | --- | --- |
|  | > 800 nM | > 800 nM |  | No Fit |  | No Fit | Cc1nc2c(s1)c1cnn(CO)c(=O)c1n2C [Compound 21] |
| > 1000 nM | < 300 nM | < 300 nM | < 300 nM |  |  |  | COc1cccc(Cn2ncc3c4sc(OC)nc4n(C)c3c2=O)c1 [Compound 22] |
| > 1000 nM | < 300 nM | < 300 nM | < 300 nM |  |  |  | COc1cccc(Cn2ncc3c4sc(SC)nc4n(C)c3c2=O)c1 [Compound 23] |
| > 1000 nM | < 300 nM | < 300 nM | < 300 nM |  |  |  | COc1cccc(Cn2ncc3c4sc([S+](C)[O-])nc4n(C)c3c2=O)c1 (stereo not shown) [Compound 24] |
| > 1000 nM | < 300 nM | < 300 nM | < 300 nM |  |  |  | COc1cccc(Cn2ncc3c4sc(S(C)(=O)=O)nc4n(C)c3c2=O)c1 [Compound 25] |
| ≤ 1000 nM | < 300 nM | > 800 nM | < 300 nM |  |  |  | Cc1nc2c(s1)c1cnn(Cc3cccc4[nH]ncc34)c(=O)c1n2C [Compound 26] |
| ≤ 1000 nM | < 300 nM | 301 to 800 nM | 301 to 800 nM |  |  |  | COc1cccc(Cn2ncc3c4sc(C)nc4n(C)c3c2=O)n1 [Compound 27] |
| > 1000 nM | > 800 nM | > 800 nM | > 800 nM |  |  |  | Cc1nc2c(s1)c1cnn(Cc3cccc(F)n3)c(=O)c1n2C [Compound 28] |
| > 1000 nM | < 300 nM | < 300 nM | < 300 nM |  |  |  | Cc1nc2c(s1)c1cnn(Cc3ccc4[nH]ncc4c3)c(=O)c1n2C [Compound 29] |
| > 1000 nM | < 300 nM | 301 to 800 nM | < 300 nM |  |  |  | COc1cccc(Cn2ncc3c4sc(Cl)nc4n(C)c3c2=O)c1 [Compound 30] |
| ≤ 1000 nM | < 300 nM | 301 to 800 nM | < 300 nM |  |  |  | COc1cccc(Cn2ncc3c4sc(Cc5ccc(Cl)cc5)nc4n(C)c3c2=O)c1 [Compound 31] |
| ≤ 1000 nM | < 300 nM | < 300 nM | < 300 nM |  |  |  | COc1cccc(Cn2ncc3c4sc(Cc5ccc(C)cc5)nc4n(C)c3c2=O)c1 [Compound 32] |
| > 1000 nM | > 800 nM | > 800 nM | 301 to 800 nM |  |  |  | Cc1nc2c(s1)c1cnn(Cc3ccc4cn[nH]c4c3)c(=O)c1n2C [Compound 33] |
| ≤ 1000 nM | < 300 nM | < 300 nM | < 300 nM |  |  |  | COc1cccc(Cn2ncc3c4sc(Sc5ccccc5)nc4n(C)c3c2=O)c1 [Compound 34] |
| > 1000 nM | 301 to 800 nM | 301 to 800 nM | 301 to 800 nM |  |  |  | COc1cccc(Cn2ncc3c4sc([S+]([O-])c5ccccc5)nc4n(C)c3c2=O)c1 (stereo not shown) [Compound 35] |
| > 1000 nM | > 800 nM | 301 to 800 nM | 301 to 800 nM |  |  |  | COc1cccc(Cn2ncc3c4sc(S(=O)(=O)c5ccccc5)nc4n(C)c3c2=O)c1 [Compound 36] |
| > 1000 nM | 301 to 800 nM | > 800 nM | < 300 nM |  |  |  | C=Cc1nc2c(s1)c1cnn(Cc3cccc(OC)c3)c(=O)c1n2C [Compound 37] |
| > 1000 nM | < 300 nM | < 300 nM | < 300 nM |  |  |  | COc1cccc(Cn2ncc3c4sc(C=O)nc4n(C)c3c2=O)c1 [Compound 38] |
| > 1000 nM | < 300 nM | < 300 nM | < 300 nM |  |  |  | CCc1nc2c(s1)c1cnn(Cc3cccc(OC)c3)c(=O)c1n2C [Compound 39] |
| > 1000 nM | 301 to 800 nM | 301 to 800 nM | < 300 nM |  |  |  | COc1cccc(Cn2ncc3c4sc(I)nc4n(C)c3c2=O)c1 [Compound 40] |
